Like-named read-outs stand apart in the source and are kept apart here.
Assays:
[1] = test system: HIV-1 strain LAI; experiment: Cellular anti-HIV assay (MT4/MTT), wild type; format: cell-based; conditions: wild type HIV-1 strain LAI, MT4 cells; for EC50: Human immunodeficiency virus 1, read-out: WT (pEC50) (converted)
Procedure: The compounds of the present invention were examined for anti-viral activity in a cellular assay. […] The cellular assay was performed according to the following procedure. HIV- or mock-infected MT4 cells were incubated for five days in the presence of various concentrations of the inhibitor. […] Cell viability is measured by measuring the concentration of MTT, a yellow, water soluble tetrazolium dye that is converted to a purple, water insoluble formazan in the mitochondria of living cells only. Upon solubilization of the resulting formazan crystals with isopropanol, the absorbance of the solution is monitored at 540 nm. The values correlate directly to the number of living cells remaining in the culture at the completion of the five-day incubation. The inhibitory activity of the compound was monitored on the virus-infected cells and was expressed as EC50 and EC90. These values represent the amount of the compound required to protect 50% and 90%, respectively, of the cells from the cytopathogenic effect of the virus. […] The selectivity index (SI) (ratio CC50/EC50) is an indication of the selectivity of the anti-HIV activity of the inhibitor. Wherever results are reported as e.g. pEC50 or pCC50 values, the result is expressed as the negative logarithm of the result expressed as EC50 or CC50 respectively.

[2] = test system: mutant HIV strain A; experiment: microbe, parasite or virus in culture; format: cell-based; conditions: for fold resistance Strain A: FR=EC50 (mutant strain)/EC50 (HIV-1 strain LAI); for pEC50 Strain A: mutant HIV strain A, MT4 cells; for EC50: Human immunodeficiency virus 1, MT4, read-out: pEC50 Strain A, mutant HIV strain A, MT4 cells (converted)
Procedure: (§1) HIV- or mock-infected MT4 cells were incubated for five days in the presence of various concentrations of the inhibitor. […] Cell viability is measured by measuring the concentration of MTT, a yellow, water soluble tetrazolium dye that is converted to a purple, water insoluble formazan in the mitochondria of living cells only. Upon solubilization of the resulting formazan crystals with isopropanol, the absorbance of the solution is monitored at 540 nm. The values correlate directly to the number of living cells remaining in the culture at the completion of the five-day incubation. The inhibitory activity of the compound was monitored on the virus-infected cells and was expressed as EC50 and EC90. These values represent the amount of the compound required to protect 50% and 90%, respectively, of the cells from the cytopathogenic effect of the virus. […] The selectivity index (SI) (ratio CC50/EC50) is an indication of the selectivity of the anti-HIV activity of the inhibitor. Wherever results are reported as e.g. pEC50 or pCC50 values, the result is expressed as the negative logarithm of the result expressed as EC50 or CC50 respectively.

[3] = test system: mutant HIV strain B; experiment: microbe, parasite or virus in culture; format: cell-based; conditions: for fold resistance Strain B: FR=EC50 (mutant strain)/EC50 (HIV-1 strain LAI); for pEC50 Strain B: mutant HIV strain B, MT4 cells; for EC50: Human immunodeficiency virus 1, MT4, read-out: pEC50 Strain B, mutant HIV strain B, MT4 cells (converted)
Procedure: as §1

[4] = test system: mutant HIV strain C; experiment: microbe, parasite or virus in culture; format: cell-based; conditions: for fold resistance Strain C: FR=EC50 (mutant strain)/EC50 (HIV-1 strain LAI); for pEC50 Strain C: mutant HIV strain C, MT4 cells; for EC50: Human immunodeficiency virus 1, MT4, read-out: pEC50 Strain C, mutant HIV strain C, MT4 cells (converted)
Procedure: as §1

[5] = test system: mutant HIV strain D; experiment: microbe, parasite or virus in culture; format: cell-based; conditions: for fold resistance Strain D: FR=EC50 (mutant strain)/EC50 (HIV-1 strain LAI); for pEC50 Strain D: mutant HIV strain D, MT4 cells; for EC50: Human immunodeficiency virus 1, MT4, read-out: pEC50 Strain D, mutant HIV strain D, MT4 cells (converted)
Procedure: as §1

[6] = test system: mutant HIV strain E; experiment: microbe, parasite or virus in culture; format: cell-based; conditions: for fold resistance Strain E: FR=EC50 (mutant strain)/EC50 (HIV-1 strain LAI); for pEC50 Strain E: mutant HIV strain E, MT4 cells; for EC50: Human immunodeficiency virus 1, MT4, read-out: pEC50 Strain E, mutant HIV strain E, MT4 cells (converted)
Procedure: as §1

[7] = test system: mutant HIV strain F; experiment: microbe, parasite or virus in culture; format: cell-based; conditions: for fold resistance Strain F: FR=EC50 (mutant strain)/EC50 (HIV-1 strain LAI); for pEC50 Strain F: mutant HIV strain F, MT4 cells; for EC50: Human immunodeficiency virus 1, MT4, read-out: pEC50 Strain F, mutant HIV strain F, MT4 cells (converted)
Procedure: as §1

[8] = test system: mock-infected MT4 cells; experiment: Toxicity on mock-infected cells (MTT); format: cell-based
Procedure: (§2) HIV- or mock-infected MT4 cells were incubated for five days in the presence of various concentrations of the inhibitor. At the end of the incubation period, the replicating virus in the control cultures has killed all HIV-infected cells in the absence of any inhibitor. Cell viability is measured by measuring the concentration of MTT, a yellow, water soluble tetrazolium dye that is converted to a purple, water insoluble formazan in the mitochondria of living cells only. Upon solubilization of the resulting formazan crystals with isopropanol, the absorbance of the solution is monitored at 540 nm. The values correlate directly to the number of living cells remaining in the culture at the completion of the five-day incubation. The inhibitory activity of the compound was monitored on the virus-infected cells and was expressed as EC50 and EC90. These values represent the amount of the compound required to protect 50% and 90%, respectively, of the cells from the cytopathogenic effect of the virus. […] The selectivity index (SI) (ratio CC50/EC50) is an indication of the selectivity of the anti-HIV activity of the inhibitor. Wherever results are reported as e.g. pEC50 or pCC50 values, the result is expressed as the negative logarithm of the result expressed as EC50 or CC50 respectively.

[9] = Pharmacokinetics in rats; format: in vivo, Whistar rats; conditions: rat
Procedure: (§3) The pharmacokinetic properties of some compounds of formula (I) were tested on rats and dogs. The compounds were evaluated in Whistar rats, source Iffa Credo, weighing approximately 350 g. Before dosing the animals were fasted overnight (approximately 12 h fasting period). The compounds were dissolved in DMSO or PEG 400. The results represented in the table concern the results from the oral or intra-peritoneal dosing of the compounds. Blood was sampled at 30 min, 1 h, 2 h, 3 h, no pre-dose sample was taken. The amount of the compound in the biological sample was determined using LC-MS. In the table below “or” means oral dosing, “ip” means intraperitoneal dosing, “mpk” means mg per kilogram.

[10] = Pharmacokinetics in dogs; format: in vivo; conditions: or, dog, results normalized to 10 mpk
Procedure: as §3

[11] = Toxicity on mock-infected cells (MTT); format: cell-based; conditions: human
Procedure: as §2

[12] = ip, DMSO, results normalized to 10 mpk
[13] = or, PEG400, results normalized to 10 mpk
[14] = Whistar, blood, ip, 10 mpk, ip, DMSO, results normalized to 10 mpk, read-out: Cmax

Molecule	WT (pEC50) [1]	fold resistance Strain A [2]	pEC50 Strain A [2]	fold resistance Strain B [3]	pEC50 Strain B [3]	fold resistance Strain C [4]	pEC50 Strain C [4]	fold resistance Strain D [5]	pEC50 Strain D [5]	fold resistance Strain E [6]	pEC50 Strain E [6]	fold resistance Strain F [7]	pEC50 Strain F [7]	Tox (pCC50) [8]	other results
{(1S,2R)-3-[(2-amino-benzothiazole-6-sulfonyl)-isobutyl-amino]-1-benzyl-2-hydroxypropyl}-carbamic acid(3R,3aS,6aR)-hexahydro-furo[2,3-b]furan-3-yl ester [Compound 2]	8.18	0.3	8.68	0.4	8.59	0.4	8.54	0.3	8.69	0.5	8.50	0.5	8.45		Tox (pCC50) ([8]; mock-infected MT4 cells, pCC50): 4.07; Cmax [9, 12]: 427 ng/mL; Cmax [9, 13]: 52 ng/mL
CNc1nc2ccc(S(=O)(=O)N(CC(C)C)C[C@@H](O)[C@H](Cc3ccccc3)NC(=O)O[C@H]3CCOC3)cc2s1 [Compound 21, {(1S,2R)-1-benzyl-2-hydroxy-3-[isobutyl-(2-methylamino-benzothiazole-6-sulfonyl)-amino]-propyl}-carbamic acid(S)(tetrahydro-furan-3-yl)ester]															Cmax [9, 12]: 1763 ng/mL; Cmax ([9]; or, DMSO, results normalized to 10 mpk): 1139 ng/mL; Cmax [9, 13]: 1315 ng/mL; Cmax ([10]; PEG400 - 2 animals): 61 ng/mL; Cmax ([10]; PEG400 - 4 animals): 184 ng/mL
CNc1nc2ccc(S(=O)(=O)N(CC(C)C)C[C@@H](O)[C@H](Cc3ccccc3)NC(=O)O[C@H]3CO[C@H]4OCC[C@H]43)cc2s1 [Compound 5, {(1S,2R)-1-benzyl-2-hydroxy-3-[isobutyl-(2-methylamino-benzothiazole-6-sulfonyl)-amino]-propyl}-carbamic acid(3R,3aS,6aR)-(hexahydro-furo[2,3-b]furan-3-yl)ester]	9.26	0.8	9.37	0.5	9.57	0.4	9.71					3.5	8.71	4.15	
CC(C)CN(C[C@@H](O)[C@H](Cc1ccccc1)NC(=O)O[C@H]1CCOC1)S(=O)(=O)c1ccc2nc(N)sc2c1 [Compound 13, {(1S,2R)-3-[(2-amino-benzothiazole-6-sulfonyl)-isobutyl-amino]-1-benzyl-2-hydroxypropyl}-carbamic acid(S) (tetrahydro-furan-3-yl)ester]	8.52	13.5	7.39	1.9	8.24	1.3	8.42	2.5	8.13	0.9	8.57	34.7	6.98	<4	
CNc1nc2ccc(S(=O)(=O)N(CC(C)C)C[C@@H](O)[C@H](Cc3ccccc3)NC(=O)COc3c(C)cc(CN)cc3C)cc2s1 [Compound 25, 2-(4-aminomethyl-2,6-dimethyl-phenoxy)-N-{(1S,2R)-1-benzyl-2-hydroxy-3-[isobutyl-(2-methylamino-benzothiazole-6-sulfonyl)-amino]-propyl}-acetamide]		10.7		4.9		4.4		10.0		4.3		117.5			EC50 [1]: 4.07 nM; EC50 [2]: 43.7 nM; EC50 [3]: 20 nM; EC50 [4]: 17.8 nM; EC50 [5]: 40.7 nM; EC50 [6]: 17.4 nM; EC50 [7]: 479 nM; CC50 at 5 days [11]: 14100 nM; Cmax [9, 14]: 453 ng/mL
CNc1nc2ccc(S(=O)(=O)N(CC(C)C)C[C@@H](O)[C@H](Cc3ccccc3)NC(=O)OC3COC4OCCC34)cc2s1 (stereo partly drawn) [Compound 4, {(1S,2R)-1-benzyl-2-hydroxy-3-[isobutyl-(2-methylamino-benzothiazole-6-sulfonyl)-amino]-propyl}-carbamic acid hexahydro-furo[2,3-b]furan-3-yl ester]		7.9		2.6		2.6		2.6		2.8		19.1			EC50 [1]: 0.457 nM; EC50 [2]: 3.63 nM; EC50 [3]: 1.17 nM; EC50 [4]: 1.17 nM; EC50 [5]: 1.17 nM; EC50 [6]: 1.29 nM; EC50 [7]: 8.71 nM; CC50 at 5 days [11]: > 10000 nM; Cmax [9, 14]: 1670 ng/mL; Cmax ([9]; Whistar, blood, po, 10 mpk, or, DMSO, results normalized to 10 mpk, read-out: Cmax): 348 ng/mL; Cmax ([9]; Whistar, blood, po, 10 mpk, or, PEG400, results normalized to 10 mpk, read-out: Cmax): 225 ng/mL
CNc1nc2ccc(S(=O)(=O)N(CC(C)C)C[C@@H](O)[C@H](Cc3ccccc3)NC(=O)O[C@H]3CCOC3)cc2s1.O=C(O)C(F)(F)F [Compound 22, {(1S,2R)-1-benzyl-2-hydroxy-3-[isobutyl-(2-methylamino-benzothiazole-6-sulfonyl)-amino]-propyl}-carbamic acid(S)(tetrahydro-furan-3-yl)ester trifluoroacetate]	8.84	81.3	6.93	10.2	7.83	4.5	8.19	11.5	7.78	3.0	8.36	549.5	6.1	<4	

From patent US20050267156A1, “Broadspectrum 2-amino-benzothiazole sulfonamide hiv protease inhibitors” (Tibotec Pharmaceuticals Ltd., priority 2002, published 2005)
